Experiments:
[1] = tested on: BRAF mutated advanced melanoma; conditions: cited from earlier work
[2] = tested on: advanced melanoma with the V600E BRAF mutation; conditions: patients with the V600E BRAF mutation, Phase I; cited from earlier work
[3] = tested on: GRP94 expression by M21 melanoma cell line; assay: Effect of BRAF-I on GRP94 expression, staining with mAb W9, flow cytometry; assay type: cell-based, human; conditions: M21 cells, 1 μM of PLX4720, 14 days, vs untreated cells
Protocol: Effect of BRAF-I on GRP94 expression by M21 melanoma cell line. Cells (2×10^5/ml) were incubated in RPMI 1640 medium containing 10% FCS with 1 μM of BRAF-I for 14 days. […] Untreated cells were used as control. Percentage of stained cells and mean fluorescence intensity (MFI) are indicated.
M21 cells were cultured in RPMI 1640 medium supplemented with 10% FBS and 1 μM of PLX4720. Cells were harvested after 14 days of culture, and washed twice with PBS-BSA. Cells (1×10^5/sample), and were stained with 1 μg of anti-GRP94 mAb W9. Human IgG (HIg) and untreated cells were used as controls. Following an incubation of 30 min at 4° C., cells were washed three times with PBS containing 2% of BSA (PBS-BSA). Cells were then incubated with an appropriate dilution of PE-conjugated anti-human IgG for 30 min at 4° C. Cells were washed and fixed with 2% PFA. Immunofluorescence was measured using a Cyan cytofluorimeter.
M21 cells were cultured in RPMI 1640 medium supplemented with 10% FBS and 1 μM of PLX4720. Cells were harvested after 14 days of culture, and washed twice with PBS-BSA. Cells (1×10^5/sample), and were stained with 1 μg of anti-GRP94 mAb W9. Human IgG (HIg) and untreated cells were used as controls. Following an incubation of 30 min at 4° C., cells were washed three times with PBS containing 2% of BSA (PBS-BSA). […]

[4] = tested on: V600E mutated melanoma cell lines sensitive to BRAF-I; assay: Development of secondary resistance on in vitro treatment with increasing doses, MTT assay; assay type: cell-based, human; conditions: increasing doses (2.5-10 μM)
Protocol: The cell line M21 (harboring the V600E BRAF missense mutation) (4×10^5/well) was cultured in a 6-well plate containing RPMI 1640 medium supplemented with 10% FBS and 2.5 μM of PLX4720. Medium was changed every 4 days. On the 8th day the concentration of PLX4720 was increased to 5 μM. Cells were cultured under these conditions for 12 days changing the medium every 4 days. Then the concentration of PLX4720 in the medium was increased to 10 μM, and the medium has been changed every 3 days. Cells were cultured until when resistant colonies appeared (around 3 weeks). Cells were tested for resistance to BRAF-I PLX4720 by analyzing their growth in the presence of 10 μM of PLX4720, using the MTT assay.

CCCS(=O)(=O)Nc1ccc(F)c(C(=O)c2c[nH]c3ncc(-c4ccc(Cl)cc4)cc23)c1F [PLX4032, Vemurafenib]
response rate ([1]; 32 BRAF mutated advanced melanoma patients, phase II study): 70%
median duration of response ([1]; patients, secondary resistance): ~8 months
tumor regression and overall survival [2]: effective in promoting tumor regression and increasing overall survival

CCCS(=O)(=O)Nc1ccc(F)c(C(=O)c2c[nH]c3ncc(Cl)cc23)c1F [PLX4720]
expression of GRP94 [3]: increased expression of GRP94
time of in vitro treatment until cell lines became secondary resistant [4]: 3-4 week

From patent US8771687B2, “Methods for treating a tumor using an antibody that specifically binds GRP94” (University of Pittsburgh—Of the Commonwealth System of …, priority 2010, dated 2014)
